The record followed here is US20120252820A1, “METHODS OF TREATING FUNGAL INFECTIONS” (NORTHEASTERN UNIVERSITY, priority 2008, published 2012).

Converted amounts (≈) assume the structure as drawn.

Assay [1] relates to C. albicans 3153A biofilms. The assay can be described thus: Biofilm killing by antifungals, CFU determination. It counts as cell-based, Candida albicans. Conditions: for killing curve of biofilm: dose-dependent, 24 hrs challenge. The protocol: (§1) Biofilms of C. albicans 3153A cells were cultured in wells of microtiter plates in RPMI medium for 48 hrs (Ramage et al., Antimicrob. Agents Chemother. 45:2475-2479 (2001)), washed twice in PBS, pH 7.4, to remove nonadherent cells, and resuspended in 100 μl RPMI growth medium containing antifungals. After 24 hrs of antifungal challenge, the biofilms and cultures were washed twice, resuspended in 100 μl PBS, scraped, transferred into eppendorf tubes, vortexed and plated for colony forming unit (CFU) determination on YPD medium. […] This could lead to an underestimation of surviving cells by a factor of ≦10. In parallel, exponentially growing and stationary planktonic cultures were grown for 48 hrs in RPMI medium, and then antifungals were added for 24 hrs. The experiment was performed in triplicate and error bars indicate standard deviation (see FIGS. 1A-1B).
Biofilms were grown in microtiter plates and were treated with amphotericin B or chlorhexidine (100 μg/ml) for 24 hrs, after which they were washed and vortexed, as discussed above. The cells were then reinoculated into microtiter plates to form new biofilms. The new biofilms, derived from persisters that survived drug treatment, were again treated with the antifungal agents (as discussed above), and the procedure was repeated a total of 3 times. Biofilms were sampled for CFU determination before and after antifungal treatment. The experiment was performed in triplicate.
Tests were also performed to determine if yeast persisters were multidrug tolerant. Mature, 48 hr biofilms of C. albicans were challenged for 24 hrs with 100 μg/ml amphotericin B, 100 μg/ml chlorhexidine, or a combination of these two antifungal agents, using the same procedures discussed above. Biofilms were washed and sampled for CFU determination before and after antifungal treatment, as discussed above.

The test system of assay [2] is Biofilm-Deficient Strains of C. albicans. The assay can be described thus: Persister formation by biofilm-deficient strains (survival to high levels of amphotericin B). The format is cell-based, Candida albicans. The procedure: as §1
Given that persisters appeared only in the biofilm, their formation was dependent on the same genes/pathways that determine biofilm development. A large panel of biofilm-defective mutants was therefore tested for their ability to produce persisters by measuring survival to high levels of amphotericin B. These mutants were able to adhere to the surface of a microtiter plate, making it possible to assay in the biofilm survival protocol described above. All strains appeared to produce essentially normal levels of persisters (Table 1).

For assay [3], the system named is C. albicans 3153A planktonic cultures. The assay can be described thus: Killing of exponentially growing and stationary planktonic cultures, CFU determination. Conditions: planktonic cultures in RPMI, antifungal 24 hrs. It counts as cell-based, Candida albicans. The protocol:
as §1

The subject of another assay is C. albicans. The assay can be described thus: MIC. It counts as cell-based. The note with it: Candida albicans.

Turning to `CC[C@H](C)C[C@H](C)CCCCCCCCC(=O)N[C@H]1C[C@@H](O)[C@@H](NCCN)NC(=O)[C@@H]2[C@@H](O)CCN2C(=O)[C@H]([C@H](O)CCN)NC(=O)[C@H]([C@H](O)[C@@H](O)c2ccc(O)cc2)NC(=O)[C@@H]2C[C@@H](O)CN2C(=O)[C@H]([C@@H](C)O)NC1=O` [Caspofungin, caspofungin], the killing of biofilms in assay [1] (C. albicans 3153A biofilms, 24 hrs antifungal challenge, CFU) is listed as not above 10 fold.

In the case of `C[C@@H]1[C@H](O)[C@@H](C)/C=C/C=C/C=C/C=C/C=C/C=C/C=C/[C@H](O[C@@H]2O[C@H](C)[C@@H](O)[C@H](N)[C@@H]2O)C[C@@H]2O[C@](O)(C[C@@H](O)C[C@@H](O)[C@H](O)CC[C@@H](O)C[C@@H](O)CC(=O)O[C@H]1C)C[C@H](O)[C@H]2C(=O)O` [amphotericin B], the Persisters entry in assay [2] (strain 3153A, control wild type) is given as “+++^1 (+++ indicates 1-2% survival)”; in assay [2] (strain CAI4), “+^3 (+ indicates 0.05-0.1% survival)”; in assay [2] (strain CJN698 (bcr1 with BCR1)), “++ (++ indicates 0.1-1% survival)”; in assay [2] (strain CJN702 (bcr1)), “++ (++ indicates 0.1-1% survival)”; in assay [2] (strain CKY136 (efg1)) it was “+++ (+++ indicates 1-2% survival)”; in assay [2] (strain CKY138 (efg1 cph1Δ)), “++ (++ indicates 0.1-1% survival)”. Moreover, the Persisters result in assay [2] (strain CKY357 (mkc1Δ)) is listed as “++^2 (++ indicates 0.1-1% survival)”; in assay [2] (strain DAY185) it was “++ (++ indicates 0.1-1% survival)”; in assay [2] (strain DAY286), “++ (++ indicates 0.1-1% survival)”; in assay [2] (strain GKO9 (mds3)) it was “++ (++ indicates 0.1-1% survival)”; in assay [2] (strain GKO443 (suv3)), “++ (++ indicates 0.1-1% survival)”; in assay [2] (strain GKO798 (kem1)) it was “++ (++ indicates 0.1-1% survival)”. Further, the Persisters entry is “++ (++ indicates 0.1-1% survival)” in assay [2] (strain GKO814 (nup85)), “+++ (+++ indicates 1-2% survival)” in assay [2] (strain MC191 (flo8/flo8)), “+ (+ indicates 0.05-0.1% survival)” in assay [2] (strain MC195 (flo8 with FLO8-2)) and “++ (++ indicates 0.1-1% survival)” in assay [2] (strain MC245 (flo8/FLO8)). In addition, the “killing of exponentially growing and stationary cells” value in assay [3] is on record as “effectively killed”. Moreover, the “cells invulnerable (persisters) in biofilm” value in assay [1] (biofilm, higher concentrations of the drug, 24 hrs) was “More than 1%”. Besides, the “killing curve of biofilm” value in assay [1] (CFU) is on record as “biphasic killing”.

By MIC is commonly meant the smallest concentration in the dilution series that meets the test's criterion for growth inhibition. Low values mean greater potency, high ones weaker potency. For `[H]/N=C(\N/C(=N/[H])NCCCCCCNC(=N)NC(=N)Nc1ccc(Cl)cc1)Nc1ccc(Cl)cc1` [chlorhexidine], the MIC against C. albicans was determined as 4 µg/mL (≈ 7.91 µM). Also, in assay [3], the “killing of exponentially growing and stationary cells” value was “eliminated”. Moreover, in assay [1] (biofilm, 24 hrs), the “concentration above which killing of persisters was observed” value is “above 100 μg/ml” and the “concentration at which the biofilm was completely sterilized” value came out at 1000 µg/mL. In assay [1] (CFU), the “killing curve of biofilm” value is listed as “biphasic killing”.
